Source: patent publication US20120034242A1, “CYTOKINE-EXPRESSING CELLULAR VACCINE COMBINATIONS” (BIOSANTE PHARMACEUTICALS, INC., priority 2003, published 2012)

Tests used:
Assay type in all cases: in vivo, mice
B16F10 = B16F10 model: B16-GM vaccine plus Celebrex; conditions: single agent; preliminary results
Procedure: FIGS. 9A and 9B illustrate the results of a study in the B16F10 melanoma model wherein the effect of a cytokine-expressing cellular vaccine was evaluated in combination with Celebrex (Celecoxib: 50 mg/kg/day in the feed starting on Day −7). Mice were challenged on Day 0 with 1×10^5 live B16F10 cells at a dorsal location and were vaccinated on Day 3 with 1×10^6 irradiated dB16gmtd cells at a ventral location.

[1] = tested on: ovalbumin-specific TCR transgenic T cells (OT-1); assay: B16 ovalbumin model: tracking of ovalbumin-specific TCR transgenic T cells (OT-1); conditions: data not shown
Source text: B16.ova and B16.GM.ova tumors are B16 cells or B16 cells expressing GM-CSF that were modified to express membrane bound ovalbumin. Ovalbumin acts as a surrogate tumor associated antigen on the tumor cells used for challenge as well as on the vaccine cells. Ovalbumin-specific T cells are used to track “tumor specific” T cell responses in the presence or absence of cells expressing GM-CSF (B16.GM-ova) alone or in combination with another cancer therapeutic agent. An antibody specifically recognizing the T-cell receptor of the ovalbumin specific T-cells is used to follow these “tumor-specific” T-cells. This antibody can be used to monitor the expansion of these tumor-specific T-cells and their activation status following various vaccination regiments. In one exemplary experimental approach, mice received via adoptive transfer ovalbumin-specific T-cells on day −2, are challenged with B16F10.ova on day 0, are vaccinated with B16F10.GM-ova on day 3 and then treated with at least one additional cancer therapeutic agent such as taxotere on day 5 and 9 (6 mg/kg), followed by monitoring of OVA-specific T cells at various time points after vaccination.

B16 tumor = assay: B16 melanoma model: B16-GM vaccine plus docetaxel
Procedure: FIG. 8A illustrates the results of a study in the B16F10 melanoma model wherein the effect of 3 IV injections of docetaxel (total dose 18 mg/kg) administered on days 5, 9, and 13 was evaluated with respect to the percentage of mice that survived.
FIG. 8B illustrates the study carried out to generate the data shown in FIGS. 8C and D. The study was performed in the B16F10 melanoma model and compared the efficacy of one cycle of a GM-CSF secreting tumor cell vaccine administration combined with one cycle of Taxotere administration to three cycles of vaccine plus three cycles of taxotere.
FIGS. 8C and 8D illustrate the results of a study in the B16F10 melanoma model (carried out as described in FIG. 8B) wherein the effect of a cytokine-expressing cellular vaccine was evaluated in combination with docetaxel (total dose 18 mg/kg) administered on days 5, 9, and 13. Administration of docetaxel given between bi-weekly vaccinations (three vaccinations total; three cycles) increased the median survival of B16 tumor-bearing mice from 31 days to 52 days when compared to three B16-GM vaccinations alone. […]
The combination of docetaxel and a GM-CSF-secreting B16F10 tumor cell (B16-GM) vaccine was evaluated in the B16 melanoma model. […]

Structure (SMILES) | effect on B16F10 tumor size and overall survival (B16F10) | survival of ovalbumin-specific TCR transgenic T cells (OT-1) [1] | inhibiting B16 tumor growth (B16 tumor; monotherapy, three IV injections, total dose 18 mg/kg) | Median Survival (B16 tumor; one cycle: vaccine three days after challenge, docetaxel IV days 5, 9, 13 (total 18 mg/kg)) [days]
Cc1ccc(-c2cc(C(F)(F)F)nn2-c2ccc(S(N)(=O)=O)cc2)cc1 [Celebrex, Celecoxib] | no effect |  |  | 
CC(=O)O[C@@]12CO[C@@H]1C[C@H](O)[C@@]1(C)C(=O)[C@H](O)C3=C(C)[C@@H](OC(=O)[C@H](O)[C@@H](NC(=O)OC(C)(C)C)c4ccccc4)C[C@@](O)([C@@H](OC(=O)c4ccccc4)[C@H]21)C3(C)C [docetaxel] |  | prolongs | ineffective | 24
